# According to article PMC9636949 (Proceedings of the National Academy of Sciences of the …, 2022):
# What was measured:
# [1] = molecular target: T1, human α7-AChR (Homo sapiens, UniProt P36544); conditions: pH 7.4; cited from earlier work
# [2] = molecular target: T1, human α7-AChR; format: binding; conditions: read-out: Unlabeled-ligand half-competition concentration; pH 7.4
# T1 sequence (P36544 23-502): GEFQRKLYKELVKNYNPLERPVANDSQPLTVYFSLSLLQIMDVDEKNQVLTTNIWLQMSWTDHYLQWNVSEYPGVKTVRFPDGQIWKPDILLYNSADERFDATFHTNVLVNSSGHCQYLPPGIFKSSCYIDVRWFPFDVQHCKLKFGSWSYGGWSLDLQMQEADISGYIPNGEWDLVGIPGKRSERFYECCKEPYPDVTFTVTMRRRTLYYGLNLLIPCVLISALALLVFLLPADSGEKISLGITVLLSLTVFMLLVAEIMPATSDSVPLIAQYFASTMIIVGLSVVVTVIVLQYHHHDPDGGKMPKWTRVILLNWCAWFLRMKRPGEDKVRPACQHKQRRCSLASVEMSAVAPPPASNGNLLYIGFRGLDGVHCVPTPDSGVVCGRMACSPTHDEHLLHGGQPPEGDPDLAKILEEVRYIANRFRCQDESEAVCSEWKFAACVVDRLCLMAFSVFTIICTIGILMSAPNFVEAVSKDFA
Structure (SMILES),Unlabeled-ligand nH (Hill coefficient) [1],IC50 [2] [µM]
"C[N+](C)(C)CCO [Choline, choline]",1.28 ± 0.08,–
"C[N+](C)(C)C [TMA, tetramethylammonium]",–,11.4 ± 1.33
CC[N+](C)(C)C [ETMA],–,15.6 ± 1.09
"CN1CCC[C@H]1c1cccnc1 [Nicotine, nicotine]",1.41 ± 0.06,–
